Assay results taken from patent US11479559B2, “Urea-substituted aromatic ring-linked dioxinoquinoline compounds, preparation method and uses thereof” (BEIJING SCITECH-MQ PHARMACEUTICALS LIMITED, priority 2018, dated 2022).
Like-named read-outs stand apart in the source and are kept apart here.

Target: RET tyrosine kinase (Homo sapiens (Human), UniProt P07949)
Assay: Assay of small molecular compounds for inhibiting the activity of RET kinase (LANCE TR-FRET)

Sequence of RET tyrosine kinase (P07949 29-1114): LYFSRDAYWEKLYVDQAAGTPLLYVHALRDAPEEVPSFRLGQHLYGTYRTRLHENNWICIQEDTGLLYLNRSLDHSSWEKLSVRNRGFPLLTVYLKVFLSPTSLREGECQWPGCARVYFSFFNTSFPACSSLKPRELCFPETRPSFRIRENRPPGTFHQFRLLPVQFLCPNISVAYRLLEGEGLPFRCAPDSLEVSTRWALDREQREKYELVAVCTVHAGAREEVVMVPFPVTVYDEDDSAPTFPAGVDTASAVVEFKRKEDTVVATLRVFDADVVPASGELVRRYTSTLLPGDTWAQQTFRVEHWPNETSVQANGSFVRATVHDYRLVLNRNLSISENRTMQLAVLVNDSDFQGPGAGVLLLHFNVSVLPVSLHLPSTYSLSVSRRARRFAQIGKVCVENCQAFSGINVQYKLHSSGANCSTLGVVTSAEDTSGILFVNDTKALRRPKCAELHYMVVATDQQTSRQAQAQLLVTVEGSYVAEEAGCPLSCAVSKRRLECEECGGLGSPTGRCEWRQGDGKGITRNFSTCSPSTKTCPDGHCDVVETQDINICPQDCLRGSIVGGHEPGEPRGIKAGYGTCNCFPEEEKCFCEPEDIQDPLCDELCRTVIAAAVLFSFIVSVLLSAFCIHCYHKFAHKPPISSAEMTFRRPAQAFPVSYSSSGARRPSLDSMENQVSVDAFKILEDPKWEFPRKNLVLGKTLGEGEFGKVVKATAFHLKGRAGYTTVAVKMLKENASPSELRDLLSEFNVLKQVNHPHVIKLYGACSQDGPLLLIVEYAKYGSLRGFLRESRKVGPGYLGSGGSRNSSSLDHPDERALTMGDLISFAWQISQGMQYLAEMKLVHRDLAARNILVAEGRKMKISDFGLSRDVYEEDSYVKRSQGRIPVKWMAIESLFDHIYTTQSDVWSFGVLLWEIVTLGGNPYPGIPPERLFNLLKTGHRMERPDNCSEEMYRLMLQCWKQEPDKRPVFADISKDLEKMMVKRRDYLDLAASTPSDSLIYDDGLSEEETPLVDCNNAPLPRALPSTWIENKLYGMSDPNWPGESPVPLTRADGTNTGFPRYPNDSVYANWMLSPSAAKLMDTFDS

SMILES | IC50 | IC50 (read-out: RET IC50)
COCCCOc1cc2nccc(Oc3ccc(NC(=O)Nc4ccc(Cl)c(C(F)(F)F)c4)c(F)c3)c2c2c1OCCO2 [Example 39, 1-(4-chloro-3-(trifluoromethyl)phenyl)-3-(2-fluoro-4-((5-(3-methoxypropoxy)-2,3-dihydro-[1,4]dioxino[2,3-f]quinolin-10-yl)oxy)phenyl)urea] | 0.05 to 0.5 µM | –
COc1cc2nccc(Oc3ccc(NC(=O)Nc4ccc(F)cc4F)cc3)c2c2c1OCCO2 [Example 4, 1-(2,4-difluorophenyl)-3-(4-((5-methoxy-2,3-dihydro-[1,4]dioxino[2,3-f]quinolin-10-yl)oxy)phenyl)urea] | 0.05 to 0.5 µM | –
COCCOc1cc2nccc(Oc3ccc(NC(=O)Nc4cc(C(F)(F)F)ccc4F)cc3)c2c2c1OCCO2 [Example 34, 1-(2-fluoro-5-(trifluoromethyl)phenyl)-3-(4-((5-(2-methoxyethoxy)-2,3-dihydro-[1,4]dioxino[2,3-f]quinolin-10-yl)oxy)phenyl)urea] | < 0.05 µM | –
COCCCOc1cc2nccc(Oc3ccc(NC(=O)Nc4ccc(Cl)c(C(F)(F)F)c4)cc3F)c2c2c1OCCO2 [Example 38, 1-(4-chloro-3-(trifluoromethyl)phenyl)-3-(3-fluoro-4-((5-(3-methoxypropoxy)-2,3-dihydro-[1,4]dioxino[2,3-f]quinolin-10-yl)oxy)phenyl)urea] | 0.05 to 0.5 µM | –
COCCCOc1cc2nccc(Oc3ccc(NC(=O)Nc4cc(C(F)(F)F)ccc4F)cc3)c2c2c1OCCO2 [Example 40, 1-(2-fluoro-5-(trifluoromethyl)phenyl)-3-(4-((5-(3-methoxypropoxy)-2,3-dihydro-[1,4]dioxino[2,3-f]quinolin-10-yl)oxy)phenyl)urea] | – | < 0.05 µM
COc1cc2nccc(Oc3ccc(NC(=O)Nc4cc(C(F)(F)F)ccc4F)cc3)c2c2c1OCCO2 [Example 2, 1-(2-fluoro-5-(trifluoromethyl)phenyl)-3-(4-((5-methoxy-2,3-dihydro-[1,4]dioxino[2,3-f]quinolin-10-yl)oxy)phenyl)urea] | – | < 0.05 µM
COc1cc2nccc(Oc3ccc(NC(=O)Nc4ccc(F)cc4)cc3)c2c2c1OCCO2 [Example 3, 1-(4-fluorophenyl)-3-(4-((5-methoxy-2,3-dihydro-[1,4]dioxino[2,3-f]quinolin-10-yl)oxy)phenyl)urea] | 0.05 to 0.5 µM | –

Further lines, results first:

IC50 | IC50 (read-out: RET IC50) | SMILES
< 0.05 µM | – | O=C(Nc1ccc(Oc2ccnc3cc(OCCCN4CCOCC4)c4c(c23)OCCO4)cc1Cl)NC1CCCC1 [Example 75, 1-(2-chloro-4-((5-(3-morpholinopropoxy)-2,3-dihydro-[1,4]dioxino[2,3-f]quinolin-10-yl)oxy)phenyl)-3-cyclopentylurea]
– | < 0.05 µM | CC(C)Oc1cc2nccc(Oc3ccc(NC(=O)NC4CC4)c(Cl)c3)c2c2c1OCCO2 [Example 44, 1-(2-chloro-4-((5-isopropoxy-2,3-dihydro-[1,4]dioxino[2,3-f]quinolin-10-yl)oxy)phenyl)-3-cyclopropylurea]
0.05 to 0.5 µM | – | O=C(Nc1ccc(Oc2ccnc3cc(OCCCN4CCOCC4)c4c(c23)OCCO4)c(F)c1)Nc1ccc(Cl)c(C(F)(F)F)c1 [Example 41, 1-(4-chloro-3-(trifluoromethyl)phenyl)-3-(3-fluoro-4-((5-(3-morpholinopropoxy)-2,3-dihydro-[1,4]dioxino[2,3-f]quinolin-10-yl)oxy)phenyl)urea]
– | < 0.05 µM | O=C(Nc1ccc(Oc2ccnc3cc(OC4COC4)c4c(c23)OCCO4)cc1Cl)NC1CC1 [Example 65, 1-(2-chloro-4-((5-(oxetan-3-yloxy)-2,3-dihydro-[1,4]dioxino[2,3-f]quinolin-10-yl)oxy)phenyl)-3-cyclopropylurea]
– | < 0.05 µM | COc1cc2nccc(Oc3ccc(NC(=O)NC(C)C)c(Cl)c3)c2c2c1OCCO2 [Example 82, 1-(2-chloro-4-((5-methoxy-2,3-dihydro-[1,4]dioxino[2,3-f]quinolin-10-yl)oxy)phenyl)-3-isopropylurea]
– | < 0.05 µM | COc1cc2nccc(Oc3ccc(NC(=O)NC4CCCC4)c(Cl)c3)c2c2c1OCCO2 [Example 69, 1-(2-chloro-4-((5-methoxy-2,3-dihydro-[1,4]dioxino[2,3-f]quinolin-10-yl)oxy)phenyl)-3-cyclopentylurea]
